According to the supplement of paper PMC7108870:

What was measured:
[1] = tested on: HEK293sieSTAT3(Y640F); assay: drug sensitivity score (DSS), cytotoxicity CellTox Green (DSS (dimensionless)); higher = more cytotoxic; extreme values may be limits of the assay; settings: 72 h; STAT3 variant: Y640F (constitutively active)
Summary of the method: (§1)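 HEK293 cells carrying a STAT3-dependent luciferase reporter and overexpressing wild-type or mutant STAT3 (20 μl at 100,000 cells/ml) were added to compounds acoustically pre-plated at 5 concentrations in 10-fold dilutions in 384-well plates. After 72 hours at 37°C and 5% CO2, CellTox Green fluorescence (485/520 nm) and then CellTiter-Glo luminescence were read on a PHERAstar FS. Values were normalised to negative and positive control wells, and a drug sensitivity score based on dose-response curve area was computed in Breeze. Each value comes from one representative of two experiments.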

[2] = tested on: HEK293sieSTAT3(wt); assay: as above; settings: 72 h; STAT3 variant: wild type
Summary of the method: as §1

[3] = tested on: HEK293sieSTAT3(Y640F); assay: drug sensitivity score (DSS), viability CellTiter-Glo (DSS (dimensionless)); higher = more growth inhibition; extreme values may be limits of the assay; settings: 72 h; STAT3 variant: Y640F (constitutively active)
Summary of the method: as §1

[4] = tested on: HEK293sieSTAT3(wt); assay: as above; settings: 72 h; STAT3 variant: wild type
Summary of the method: as §1

Structure (SMILES) | drug sensitivity score [1] | drug sensitivity score [2] | drug sensitivity score [3] | drug sensitivity score [4]
CCNC(=O)CCC/C=C\C[C@@H]1[C@@H](/C=C/[C@@H](O)CCc2ccccc2)[C@H](O)C[C@@H]1O [Bimatoprost] (top concentration tested 5500 nM) | 0 | 0 | 0 | 0
CCCOc1ccn2c(C(C)=O)cc(-c3ccccc3S(C)(=O)=O)c2c1 [GSK2801] (top concentration tested 10000 nM) | 0 | 0 | 0 | 0
Cc1[nH]c(/C=C2\C(=O)Nc3ccccc32)c(C)c1CCC(=O)O [Orantinib] (top concentration tested 10000 nM) | 18.4 | 21.6 | 1.85 | 1.33
Cc1c2oc3c(C)ccc(C(=O)N[C@@H]4C(=O)N[C@H](C(C)C)C(=O)N5CCC[C@H]5C(=O)N(C)CC(=O)N(C)[C@@H](C(C)C)C(=O)O[C@@H]4C)c3nc-2c(C(=O)N[C@@H]2C(=O)N[C@H](C(C)C)C(=O)N3CCC[C@H]3C(=O)N(C)CC(=O)N(C)[C@@H](C(C)C)C(=O)O[C@@H]2C)c(N)c1=O [Dactinomycin] (top concentration tested 1000 nM) | 0 | 0 | 32.5 | 35.4
CC[C@H](C)C(=O)O[C@H]1C[C@H](O)C=C2C=C[C@H](C)[C@H](CC[C@@H](O)C[C@@H](O)CC(=O)O)[C@H]21 [Pravastatin] (top concentration tested 10000 nM) | 0.36 | 0 | 0 | 2.37
CC(=O)OC[C@H]1O[C@@H]([S-])[C@H](OC(C)=O)[C@@H](OC(C)=O)[C@@H]1OC(C)=O.CCP(CC)CC.[Au+] [Auranofin] (top concentration tested 2500 nM) | 6.36 | 9.45 | 9.25 | 8.14
CO[C@H](C(=O)[C@@H](O)[C@@H](C)O)[C@@H]1Cc2cc3cc(O[C@H]4C[C@@H](O[C@@H]5C[C@@H](O)[C@H](O)[C@@H](C)O5)[C@H](O)[C@@H](C)O4)c(C)c(O)c3c(O)c2C(=O)[C@H]1O[C@H]1C[C@@H](O[C@@H]2C[C@@H](O)[C@@H](O[C@@H]3C[C@](C)(O)[C@H](O)[C@@H](C)O3)[C@@H](C)O2)[C@H](O)[C@@H](C)O1 [Plicamycin] (top concentration tested 10000 nM) | 6.46 | 7.29 | 17.8 | 18.7
CCC(C)n1ncn(-c2ccc(N3CCN(c4ccc(OCC5COC(Cn6cncn6)(c6ccc(Cl)cc6Cl)O5)cc4)CC3)cc2)c1=O (stereo not given) [Itraconazole] (top concentration tested 5000 nM) | 4.55 | 7.01 | 6.28 | 5.54
Cn1c(CCCC(=O)O)nc2cc(N(CCCl)CCCl)ccc21 [Bendamustine] (top concentration tested 10000 nM) | 0 | 0 | 0.53 | 3.94
CC(=O)O[C@]1(C(C)=O)CC[C@H]2[C@@H]3C=C(C)C4=CC(=O)CC[C@]4(C)[C@H]3CC[C@@]21C [Megestrol acetate] (top concentration tested 10000 nM) | 0 | 0 | 3.65 | 0.97
COc1cc(Nc2ncc3c(n2)-c2ccc(Cl)cc2C(c2c(F)cccc2OC)=NC3)ccc1C(=O)O [Alisertib] (top concentration tested 10000 nM) | 0 | 8.65 | 9.16 | 12.1
COc1cc(N2CCC(N3CCN(C)CC3)CC2)ccc1Nc1ncnc(Nc2ccccc2S(=O)(=O)C(C)C)n1 [ASP3026] (top concentration tested 10000 nM) | 0.7 | 4.8 | 7.3 | 8.01
CCCCCOC(=O)Nc1nc(=O)n([C@@H]2O[C@H](C)[C@@H](O)[C@H]2O)cc1F [Capecitabine] (top concentration tested 10000 nM) | 0 | 0 | 0 | 0
O=C(O)c1ccc(CN2CCC(CN[C@@H]3C[C@H]3c3ccccc3)CC2)cc1 (top concentration tested 10000 nM) | 0 | 0 | 0 | 0
CN(c1ccccc1CNc1nc(Nc2ccc3c(c2)CC(=O)N3)ncc1C(F)(F)F)S(C)(=O)=O (top concentration tested 10000 nM) | 1.46 | 6.16 | 10.1 | 11.2
